Reference: ChEMBL document CHEMBL1201862, “PubChem BioAssay data set” (2004)
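Five compound concentrations were applied to cells in 96-well plates for 48 hours; endpoints were derived by simple linear interpolation of the resulting dose-response curve. Here, GI50 denotes the concentration required for 50% inhibition of growth.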 Active and inactive are the calls of the source. Rule as the data show it: active = GI50 up to about 1.1 µM and inactive = higher.

Tests used:
Assay in all cases: NCI tumour cell line growth inhibition, 48 h
SF-539 = tested on: SF-539
SW-620 = tested on: SW-620
SF-295 = tested on: SF-295
HOP-62 = tested on: HOP-62
ACHN = tested on: ACHN
SR = tested on: SR
HL-60 = tested on: HL-60
NCI-H460 = tested on: NCI-H460
A498 = tested on: A498
OVCAR-5 = tested on: OVCAR-5
SNB-75 = tested on: SNB-75
MOLT-4 = tested on: MOLT-4
M14 = tested on: M14
NCI-H522 = tested on: NCI-H522
SK-OV-3 = tested on: SK-OV-3
HCT-116 = tested on: HCT-116
RXF 393 = tested on: RXF 393
MCF7 = tested on: MCF7
PC-3 = tested on: PC-3
MDA-N = tested on: MDA-N

Measured: GI50

CC1CC(c2ccc(Cl)cc2)=Nc2ccccc2S1 (configuration not stated)
inactive: SF-539 > 100 µM | SW-620 > 100 µM | SF-295 > 100 µM | HOP-62 > 100 µM | ACHN > 100 µM | SR > 100 µM | HL-60 > 100 µM | NCI-H460 > 100 µM | A498 > 100 µM | OVCAR-5 > 100 µM | SNB-75 > 100 µM | MOLT-4 > 100 µM | M14 > 100 µM | NCI-H522 > 100 µM | SK-OV-3 > 100 µM | HCT-116 > 100 µM | RXF 393 > 100 µM

CCOC(=O)CSc1nc(-c2ccc(Cl)cc2)c(C#N)c(=O)[nH]1
inactive: SF-539 > 100 µM | SW-620 > 100 µM | SF-295 > 100 µM | HOP-62 > 100 µM | ACHN > 100 µM | MCF7 99.5 µM | HL-60 22 µM | NCI-H460 > 100 µM | A498 > 100 µM | OVCAR-5 > 100 µM | SNB-75 63.7 µM | PC-3 > 100 µM | MOLT-4 > 100 µM | M14 > 100 µM | NCI-H522 58.5 µM | SK-OV-3 > 100 µM | HCT-116 72.9 µM | RXF 393 > 100 µM

Nn1c(CCCCCCCCc2nnc(COc3ccc(Cl)cc3)n2N)nnc1COc1ccc(Cl)cc1
inactive: SW-620 > 100 µM | SF-295 > 100 µM | ACHN > 100 µM | MCF7 > 100 µM | NCI-H460 > 100 µM | A498 95.1 µM | OVCAR-5 > 100 µM | SNB-75 > 100 µM | PC-3 68.2 µM | MOLT-4 49.5 µM | M14 > 100 µM | NCI-H522 81.1 µM | SK-OV-3 > 100 µM | HCT-116 74.5 µM | RXF 393 > 100 µM

Cc1ccc(S(=O)(=O)N/N=C(\CCN2CCCC2)CC(c2ccccc2)c2c(O)c3ccccc3oc2=O)cc1 (configuration not stated)
inactive: SF-539 > 100 µM | SW-620 49.5 µM | SF-295 > 100 µM | HOP-62 > 100 µM | ACHN > 100 µM | SR > 100 µM | HL-60 > 100 µM | NCI-H460 > 100 µM | A498 > 100 µM | OVCAR-5 > 100 µM | SNB-75 > 100 µM | M14 > 100 µM | NCI-H522 99.5 µM | SK-OV-3 > 100 µM | HCT-116 > 100 µM | RXF 393 > 100 µM

Cc1cc2nc3c(C#N)c(-c4ccccc4)cc(Nc4cccc(C(F)(F)F)c4)n3c2cc1C
inactive: SF-539 3.78 µM | SW-620 3.74 µM | SF-295 7.19 µM | HOP-62 9.98 µM | ACHN 3.4 µM | MCF7 3.91 µM | NCI-H460 3.33 µM | A498 6.05 µM | OVCAR-5 12.9 µM | SNB-75 8.83 µM | PC-3 2.56 µM | MDA-N 4.04 µM | M14 4.78 µM | NCI-H522 4.49 µM | SK-OV-3 6.1 µM | HCT-116 2.7 µM | RXF 393 5.48 µM

COC(=O)c1c(C)cccc1C1CN=NC12Cc1ccc(C)c(C)c1C2=O (configuration not stated)
inactive: SF-539 68.9 µM | SW-620 33.4 µM | SF-295 42.7 µM | HOP-62 77.1 µM | ACHN 27.2 µM | MCF7 24.4 µM | SR 16.6 µM | HL-60 8.59 µM | NCI-H460 22.8 µM | A498 36.3 µM | OVCAR-5 > 100 µM | SNB-75 96.4 µM | MDA-N 45.2 µM | MOLT-4 12.2 µM | M14 30.5 µM | NCI-H522 12.9 µM | HCT-116 14.8 µM | RXF 393 20.9 µM

CCC/C(=N/NC(=O)C(N)=O)C(CC)C(=O)CCC(=O)N(Cc1ccccc1)Cc1ccccc1 (configuration not stated)
inactive: SF-539 > 100 µM | SW-620 > 100 µM | SF-295 > 100 µM | HOP-62 > 100 µM | ACHN > 100 µM | SR > 100 µM | HL-60 > 100 µM | NCI-H460 > 100 µM | A498 > 100 µM | OVCAR-5 > 100 µM | SNB-75 > 100 µM | MOLT-4 > 100 µM | M14 > 100 µM | NCI-H522 > 100 µM | SK-OV-3 > 100 µM | HCT-116 > 100 µM | RXF 393 > 100 µM

N#Cc1c(=O)c2ccccc2n2ccccc12
inactive: SW-620 79.8 µM | ACHN > 100 µM | SR > 100 µM | HL-60 > 100 µM | NCI-H460 > 100 µM | A498 > 100 µM | SNB-75 > 100 µM | PC-3 19.7 µM | MDA-N > 100 µM | NCI-H522 > 100 µM | HCT-116 > 100 µM

COc1ccc2c3c([nH]c2c1[N+](=O)[O-])C(C)=NCC3
inactive: SF-539 65.6 µM | SW-620 53.1 µM | SF-295 72.8 µM | HOP-62 > 100 µM | ACHN 52.6 µM | SR 40.4 µM | HL-60 > 100 µM | NCI-H460 34.9 µM | A498 18.8 µM | OVCAR-5 61 µM | SNB-75 > 100 µM | MOLT-4 30.8 µM | M14 > 100 µM | NCI-H522 > 100 µM | HCT-116 30.2 µM | RXF 393 > 100 µM

O=C1C2=C(SCCS2)C(=O)c2ccccc21
inactive: SF-539 1.72 µM | SW-620 2.11 µM | SF-295 1.76 µM | HOP-62 1.56 µM | ACHN 1.66 µM | SR 1.2 µM | HL-60 2.31 µM | NCI-H460 1.83 µM | A498 2.03 µM | OVCAR-5 1.83 µM | SNB-75 1.67 µM | MOLT-4 2.23 µM | M14 1.87 µM | NCI-H522 1.76 µM | SK-OV-3 1.73 µM | HCT-116 1.67 µM | RXF 393 2.1 µM

Cc1ccc(-c2c(C#N)c(-c3ccccc3)n(NS(=O)(=O)c3ccc(C)cc3)c(=O)c2C#N)cc1
inactive: SF-539 34 µM | SW-620 40.6 µM | SF-295 41.3 µM | HOP-62 41.9 µM | ACHN 38 µM | MCF7 37 µM | NCI-H460 34.3 µM | A498 52.8 µM | OVCAR-5 > 100 µM | SNB-75 92.5 µM | PC-3 36.6 µM | MDA-N 71.8 µM | MOLT-4 19.8 µM | M14 74.1 µM | NCI-H522 39.2 µM | SK-OV-3 96.6 µM | HCT-116 35.1 µM | RXF 393 51.5 µM

O=C1CCCC2=C1CC1=C(CCCC1=O)N2c1cccc2ccccc12
inactive: SF-539 > 100 µM | SW-620 > 100 µM | ACHN > 100 µM | MCF7 41.1 µM | SR > 100 µM | HL-60 17 µM | NCI-H460 > 100 µM | A498 > 100 µM | OVCAR-5 > 100 µM | SNB-75 29.1 µM | PC-3 > 100 µM | MOLT-4 78 µM | M14 > 100 µM | SK-OV-3 > 100 µM | RXF 393 10.9 µM

CN1OC(CO)CC12C1CC3CC(C1)CC2C3 (configuration not stated)
inactive: SF-539 > 100 µM | SW-620 > 100 µM | SF-295 > 100 µM | HOP-62 > 100 µM | ACHN > 100 µM | SR > 100 µM | HL-60 > 100 µM | NCI-H460 > 100 µM | A498 > 100 µM | OVCAR-5 > 100 µM | SNB-75 > 100 µM | MOLT-4 > 100 µM | M14 > 100 µM | NCI-H522 > 100 µM | SK-OV-3 > 100 µM | HCT-116 > 100 µM | RXF 393 > 100 µM

C=CCN1C(=O)C/C(=C2/CCC(=O)N2CC=C)C1=O
inactive: SF-539 > 100 µM | SW-620 > 100 µM | SF-295 > 100 µM | HOP-62 88.7 µM | ACHN > 100 µM | SR > 100 µM | HL-60 > 100 µM | NCI-H460 > 100 µM | A498 > 100 µM | OVCAR-5 > 100 µM | SNB-75 > 100 µM | MOLT-4 > 100 µM | M14 > 100 µM | NCI-H522 > 100 µM | SK-OV-3 > 100 µM | HCT-116 > 100 µM | RXF 393 > 100 µM

CCCCCCCCCCCC(=O)OCC1OC(n2cc(F)c(=O)[nH]c2=O)C(NC(=O)OCc2ccccc2)C(O)C1O (configuration not stated)
inactive: SF-539 22 µM | SW-620 20.6 µM | SF-295 27.9 µM | HOP-62 44.9 µM | ACHN 57.4 µM | SR 19.1 µM | HL-60 20.6 µM | NCI-H460 17.6 µM | A498 20.1 µM | SNB-75 11.1 µM | MOLT-4 21.2 µM | M14 19.6 µM | NCI-H522 14.5 µM | SK-OV-3 63.7 µM | HCT-116 16.7 µM | RXF 393 27.2 µM

Cc1cc(CNC(=O)OCc2ccccc2)c(C)c2c1Oc1ccccc1O2
inactive: SW-620 > 100 µM | SF-295 31.8 µM | HOP-62 17.4 µM | ACHN 43.8 µM | MCF7 49.5 µM | SR > 100 µM | NCI-H460 > 100 µM | A498 23 µM | OVCAR-5 43.4 µM | SNB-75 11.8 µM | PC-3 43.4 µM | MOLT-4 > 100 µM | M14 69.7 µM | NCI-H522 13.9 µM | SK-OV-3 17.1 µM | HCT-116 36.6 µM | RXF 393 12.7 µM

Nc1nc(Cl)c2nnn(CC3CCC(CO)C3)c2n1 (configuration not stated)
inactive: SF-539 > 100 µM | SW-620 > 100 µM | SF-295 > 100 µM | HOP-62 > 100 µM | ACHN > 100 µM | MCF7 > 100 µM | A498 > 100 µM | OVCAR-5 > 100 µM | SNB-75 > 100 µM | PC-3 > 100 µM | MDA-N > 100 µM | M14 > 100 µM | SK-OV-3 > 100 µM | HCT-116 > 100 µM | RXF 393 > 100 µM
